Data taken from ChEMBL document CHEMBL1201862, “PubChem BioAssay data set” (2004).
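These data come from cells grown in 96-well plates and exposed to compound for 48 hours at five concentrations. Abbreviation: GI50, concentration required for 50% inhibition of growth.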 Activity calls are given as the source filed them. Cut-off read from the data, not from the text of the source: active = GI50 up to about 1.1 µM and inactive = higher.

Assays:
Assay in all cases: NCI anticancer screen, dose series, 48 h
[1] = tested on: HCT-15
[2] = tested on: HOP-92
[3] = tested on: CAKI-1
[4] = tested on: HCT-116
[5] = tested on: HT-29
[6] = tested on: NCI/ADR-RES
[7] = tested on: MDA-MB-231
[8] = tested on: OVCAR-8
[9] = tested on: BT-549
[10] = tested on: SK-OV-3
[11] = tested on: LOX IMVI
[12] = tested on: SNB-75
[13] = tested on: EKVX
[14] = tested on: OVCAR-3
[15] = tested on: TK-10
[16] = tested on: OVCAR-5
[17] = tested on: NCI-H23
[18] = tested on: DU-145
[19] = tested on: MDA-MB-435
[20] = tested on: T47D

SMILES | GI50 [1] | GI50 [2] | GI50 [3] | GI50 [4] | GI50 [5] | GI50 [6] | GI50 [7] | GI50 [8] | GI50 [9] | GI50 [10] | GI50 [11] | GI50 [12] | GI50 [13] | GI50 [14] | GI50 [15] | GI50 [16] | GI50 [17] | GI50 [18] | GI50 [19] | GI50 [20]
CC(C)(C)n1c(=O)[nH]c(=O)n1C(C)(C)C | > 100 µM | > 100 µM (inactive) | > 100 µM (inactive) | > 100 µM (inactive) | > 100 µM (inactive) | > 100 µM (inactive) | > 100 µM (inactive) | > 100 µM (inactive) | > 100 µM (inactive) | > 100 µM (inactive) | > 100 µM (inactive) | > 100 µM (inactive) | > 100 µM (inactive) | > 100 µM (inactive) | > 100 µM (inactive) | > 100 µM (inactive) | > 100 µM (inactive) | – | – | –
CC12OC1(C)C1C(=O)OCC1C2=O (stereo unspecified) | 55 µM | > 100 µM (inactive) | 29.2 µM (inactive) | 66.4 µM (inactive) | 49.7 µM (inactive) | 51.3 µM (inactive) | > 100 µM (inactive) | 49.9 µM (inactive) | > 100 µM (inactive) | > 100 µM (inactive) | > 100 µM (inactive) | 99.3 µM (inactive) | – | 38.9 µM (inactive) | > 100 µM (inactive) | 59.4 µM (inactive) | > 100 µM (inactive) | > 100 µM (inactive) | > 100 µM (inactive) | –
S=C1SC(c2ccc(Cl)cc2)(c2ccc(Cl)cc2)c2ccccc21 | 65 µM | 44.4 µM (inactive) | 53.8 µM (inactive) | 24.7 µM (inactive) | 28 µM (inactive) | > 100 µM (inactive) | > 100 µM (inactive) | > 100 µM (inactive) | 79.1 µM (inactive) | > 100 µM (inactive) | 25.7 µM (inactive) | > 100 µM (inactive) | 91.4 µM (inactive) | 72.1 µM (inactive) | > 100 µM (inactive) | > 100 µM (inactive) | 71 µM (inactive) | 55.1 µM (inactive) | 62.7 µM (inactive) | –
O=C1NC(=O)C(COCc2ccccc2)C2=C1SCCC2 (stereo unspecified) | > 100 µM | > 100 µM (inactive) | > 100 µM (inactive) | > 100 µM (inactive) | > 100 µM (inactive) | > 100 µM (inactive) | > 100 µM (inactive) | > 100 µM (inactive) | > 100 µM (inactive) | – | > 100 µM (inactive) | > 100 µM (inactive) | > 100 µM (inactive) | > 100 µM (inactive) | – | – | > 100 µM (inactive) | > 100 µM (inactive) | > 100 µM (inactive) | –
CCOC(=O)C(=O)Nc1c(F)cc(F)cc1Br | > 100 µM | > 100 µM (inactive) | > 100 µM (inactive) | > 100 µM (inactive) | > 100 µM (inactive) | – | – | > 100 µM (inactive) | – | > 100 µM (inactive) | > 100 µM (inactive) | > 100 µM (inactive) | > 100 µM (inactive) | > 100 µM (inactive) | > 100 µM (inactive) | > 100 µM (inactive) | > 100 µM (inactive) | – | – | –
CC1(C)CC[C@]2(C(=O)O)CCC3(C)C(=CCC4[C@@]5(C)CC[C@H](OC6OCC(O)C(O)C6OC6OC(CO)C(O)C(O)C6O)C(C)(C)C5CC[C@]43C)C2C1 (stereo partly specified) | 2.17 µM | 1.84 µM (inactive) | 1.66 µM (inactive) | 2.81 µM (inactive) | 2.46 µM (inactive) | – | – | 1.95 µM (inactive) | – | 2.22 µM (inactive) | 1.95 µM (inactive) | 2.2 µM (inactive) | 1.79 µM (inactive) | 2.12 µM (inactive) | 2.04 µM (inactive) | 2.41 µM (inactive) | 2.11 µM (inactive) | – | – | –
CN(C)CCCN1N=Nc2cccc3cccc1c23 | 38.1 µM | 90.6 µM (inactive) | > 71.3 µM (inactive) | 28.8 µM (inactive) | 33.3 µM (inactive) | – | – | > 77.3 µM (inactive) | – | > 100 µM (inactive) | 41.9 µM (inactive) | > 100 µM (inactive) | > 100 µM (inactive) | > 100 µM (inactive) | > 100 µM (inactive) | > 91.4 µM (inactive) | > 100 µM (inactive) | – | – | –
CC(=O)OCC1OC(OC2CC3C(C)(C)C(OC(C)=O)CC[C@]3(C)C3CCC45CC4(CC[C@H]5C(C)CC(O)C4OC4(C)C)[C@]23C)C(O)C(O)C1O (stereo partly specified) | 1.55 µM | 2.25 µM (inactive) | 4.32 µM (inactive) | 1.34 µM (inactive) | 0.92 µM (active) | – | – | 2.2 µM (inactive) | – | 2.3 µM (inactive) | 1.63 µM (inactive) | 2.27 µM (inactive) | 3.11 µM (inactive) | 2.58 µM (inactive) | 3.35 µM (inactive) | 1.03 µM (active) | 2.86 µM (inactive) | – | – | –
O=C(/C=C/c1cccc(Br)c1)c1cccs1 | 14.6 µM | – | 16.1 µM (inactive) | 5.47 µM (inactive) | 11.5 µM (inactive) | 23.6 µM (inactive) | 16.7 µM (inactive) | 17.7 µM (inactive) | – | 23.8 µM (inactive) | – | 14.6 µM (inactive) | 18.5 µM (inactive) | – | 16.4 µM (inactive) | – | 19.5 µM (inactive) | > 10 µM (inactive) | 11.7 µM (inactive) | 15.3 µM (inactive)
